Several values for one entry are separate records, joined by “and”; a condition that tells them apart may be missing. Equal entries are not always repeated. Strand notation (5' to 3'): a small letter for the sugar, then the base; units joined by * are phosphorothioate-linked, units joined directly phosphodiester-linked; [ ] holds rarer units or linkages, { } end groups; capitals alone tell only the bases. e = 2'-O-(2-methoxyethyl) (MOE); [5mC] = 5-methylcytosine; d = 2'-deoxy (DNA) A value given as a limit tells only on which side of the number the result lay.

The nature of data set [1]: Viscosity of ISIS antisense oligonucleotides, micro-viscometer at 25 °C (Example 47). Type of data set: physicochemical. The following applies: for Concentration: concentration of the viscosity sample, UV reading at 260 nM at 85° C.; for Viscosity: in water, micro-viscometer at 25° C., at the concentration of the same line. Put shortly: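 Oligonucleotide (32-35 mg) was dissolved in 120 μL water by heating at 50° C, and viscosity was measured by micro-viscometer at 25° C. Concentration was checked by UV at 260 nm at 85° C on a dilution in water. Screening cut-off: >40 cP at 165-185 mg/mL.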

The next data set relates to Factor 11 protein. Description: Factor 11 protein in monkey plasma by sandwich ELISA (Example 46). The format is in vivo, cynomolgus monkeys. The following applies: for Inhibition of Factor 11 protein relative to the PBS control (percentage reduction): 25 mg/kg subcutaneously; for Factor 11 protein levels in plasma: cynomolgus monkeys, 25 mg/kg. The protocol: (§1) Groups, each consisting of two male and two female monkeys, were injected subcutaneously with 25 mg/kg of ISIS 416850, ISIS 449709, ISIS 445522, ISIS 449710, ISIS 449707, ISIS 449711, ISIS 449708, 416858, and ISIS 445531. Antisense oligonucleotide was administered to the monkeys at 25 mg/kg three times per week for week 1 and 25 mg/kg twice per week for weeks 2 to 8. A control group, consisting of two male and two female monkeys was injected subcutaneously with PBS according to the same dosing regimen. Body weights were taken 14 days and 7 days before the start of treatment and were then measured weekly throughout the treatment period. Blood samples were collected 14 days and 5 days before the start of treatment and subsequently several times during the dosing regimen for PT and aPTT measurements, and measurement of various hematologic factors. On day 55, the monkeys were euthanized by exsanguination while under deep anesthesia, and organs harvested for further analysis.
Plasma samples from all monkey groups taken on different days were analyzed by a sandwich-style ELISA assay (Affinity Biologicals Inc.) using an affinity-purified polyclonal anti-Factor 11 antibody as the capture antibody and a peroxidase-conjugated polyclonal anti-Factor 11 antibody as the detecting antibody. Monkey plasma was diluted 1:50 for the assay. Peroxidase activity was expressed by incubation with the substrate o-phenylenediamine. The color produced was quantified using a microplate reader at 490 nm and was considered to be proportional to the concentration of Factor 11 in the samples.
The results are presented in Table 147, expressed as percentage reduction relative to that of the PBS control.

The subject of another data set is blood coagulation. Description: PT and aPTT assay in cynomolgus monkeys (Example 46). Type of data set: in vivo. The following applies: for PT ratio (INR) / aPTT ratio relative to PBS group: platelet poor plasma, relative to PBS group. The procedure: as §1
PT and aPTT were measured using platelet poor plasma (PPP) from […] treated with ISIS oligonucleotides. PT and aPTT values are provided in Tables 148 and 149 and are reported as International Normalized Ratio (INR) values. INR values for PT and aPTT were determined by dividing the PT or aPTT value for each experimental group by the PT or aPTT for the PBS treated group. This ratio was then raised to the power of the International Sensitivity Index (ISI) of the tissue factor used. […] Therefore, antisense reduction of Factor 11 with these ISIS oligonucleotides is useful for inhibiting the formation of a thrombus or clot in response to an abnormal vessel wall, but not in response to tissue injury.

Take “445522 (antisense eG*e[5mC]*eA*e[5mC]*eA*dG*dT*dT*dT*d[5mC]*dT*dG*dG*e[5mC]*eA*eG*eG*e[5mC]) [compound 445522]”: in data set [1], the Concentration was 173 mg/mL and 174 mg/mL. In data set [1], the Viscosity is 63 cP and 58 cP. In addition, the “Inhibition of Factor 11 protein relative to the PBS control (percentage reduction)” value with Factor 11 protein (Day 10, plasma) is 36%; in the data set with Factor 11 protein (Day 17, plasma), 50%; with Factor 11 protein (Day 24, plasma), 61%; with Factor 11 protein (Day 31, plasma), 70%; with Factor 11 protein (Day 38, plasma) it was 73%; with Factor 11 protein (Day 45, plasma), 77%. Besides, the “Inhibition of Factor 11 protein relative to the PBS control (percentage reduction)” value in the data set with Factor 11 protein (Day 52, plasma) came to 80%; in the data set with Factor 11 protein (Day 55, plasma), 82%; in the data set with Factor 11 protein (Day −5, plasma) it was 0%; in the data set with Factor 11 protein (Day −14, plasma), 2%.

“445531 (antisense eG*eG*e[5mC]*eA*eT*dT*dG*dG*dT*dG*d[5mC]*dA*d[5mC]*eA*eG*eT*eT*eT) [compound 445531]”: the Concentration in data set [1] was 155 mg/mL and 179 mg/mL. In data set [1], the Viscosity was 15 cP and 20 cP. Also, the “Inhibition of Factor 11 protein relative to the PBS control (percentage reduction)” value in the data set with Factor 11 protein (Day 10, plasma) was 9%; with Factor 11 protein (Day 17, plasma), 22%; in the data set with Factor 11 protein (Day 24, plasma) it was 23%; in the data set with Factor 11 protein (Day 31, plasma), 27%; in the data set on Factor 11 protein (Day 38, plasma), 29%; in the data set with Factor 11 protein (Day 45, plasma) it was 32%. The “Inhibition of Factor 11 protein relative to the PBS control (percentage reduction)” value amounted to 32% in the data set on Factor 11 protein (Day 52, plasma); 37% with Factor 11 protein (Day 55, plasma); 1% in the data set with Factor 11 protein (Day −5, plasma); 0% in the data set on Factor 11 protein (Day −14, plasma).

In the case of “ISIS 445522: 5-8-5 or 6-8-6 MOE microwalk gapmer (Table 44) (antisense eG*e[5mC]*eA*e[5mC]*eA*dG*dT*dT*dT*d[5mC]*dT*dG*dG*e[5mC]*eA*eG*eG*e[5mC])”, the “PT ratio (INR)” value is 0.95 with blood coagulation (Day 10); 0.96 with blood coagulation (Day 17); 0.94 in the data set on blood coagulation (Day 24); 0.96 in the data set with blood coagulation (Day 31); 0.97 in the data set on blood coagulation (Day 38); 0.96 with blood coagulation (Day 45). The “PT ratio (INR)” value is on record as 0.98 with blood coagulation (Day 52), 1.01 in the data set on blood coagulation (Day 55), 0.94 with blood coagulation (Day −5) and 1.00 in the data set on blood coagulation (Day −14). The “aPTT ratio relative to PBS group” value worked out at 1.06 in the data set on blood coagulation (Day 10); 1.10 in the data set with blood coagulation (Day 17); 1.14 in the data set on blood coagulation (Day 24); 1.25 in the data set on blood coagulation (Day 31); 1.32 in the data set on blood coagulation (Day 38); 1.39 in the data set with blood coagulation (Day 45). The “aPTT ratio relative to PBS group” value with blood coagulation (Day 52) is given as 1.39; with blood coagulation (Day 55), 1.42; with blood coagulation (Day −5), 0.91; in the data set on blood coagulation (Day −14), 0.96. The “aPTT” value in the data set with blood coagulation (cynomolgus monkeys, 25 mg/kg) is listed as “significantly prolonged”. The “Factor 11 protein levels in plasma” value with Factor 11 protein is given as “time-dependent decrease in protein levels”.

In data set [1], “412225 (antisense GCAGCGGACGGCATTGGTGC; 5-10-5 MOE gapmer, further chemistry not given here) [compound 412225]” came in with a Concentration of 162 mg/mL and a Viscosity of over 100 cP.

For the substance “416856 (antisense GGCATTGGTGCACAGTTTCT; 5-10-5 gapmer, further chemistry not given here) [compound 416856]”, in data set [1], the Concentration was determined as 175 mg/mL and the Viscosity is reported as 18 cP.

For “ISIS 449709: 3-8-3, 4-8-4, 2-10-2, 3-10-3 or 4-10-4 MOE microwalk gapmer (Table 46) (antisense eG*e[5mC]*eA*e[5mC]*dA*dG*dT*dT*dT*d[5mC]*dT*dG*dG*d[5mC]*eA*eG*eG*e[5mC])”, the “PT ratio (INR)” value stood at 0.95 in the data set with blood coagulation (Day 10); 0.95 in the data set on blood coagulation (Day 17); 0.95 with blood coagulation (Day 24); 0.95 with blood coagulation (Day 31); 0.97 in the data set with blood coagulation (Day 38); 0.97 in the data set with blood coagulation (Day 45). The “PT ratio (INR)” value in the data set with blood coagulation (Day 52) was determined as 0.99; in the data set on blood coagulation (Day 55) it was 1.03; with blood coagulation (Day −5) it was 0.96; with blood coagulation (Day −14) it was 1.00. In addition, the “aPTT ratio relative to PBS group” value in the data set on blood coagulation (Day 10) was found to be 0.99; in the data set on blood coagulation (Day 17), 1.03; with blood coagulation (Day 24), 1.05; in the data set with blood coagulation (Day 31), 1.08; with blood coagulation (Day 38) it was 1.08; in the data set on blood coagulation (Day 45) it was 1.15. Moreover, the “aPTT ratio relative to PBS group” value in the data set with blood coagulation (Day 52) was 1.09; in the data set on blood coagulation (Day 55), 1.17; in the data set on blood coagulation (Day −5) it was 0.91; in the data set on blood coagulation (Day −14) it was 0.99. Moreover, the “Factor 11 protein levels in plasma” value in the data set on Factor 11 protein is “time-dependent decrease in protein levels”.

In the case of “413482 (antisense GGACGGCATTGGTGCACAGT; 5-10-5 MOE gapmer, further chemistry not given here) [compound 413482]”, in data set [1], the Concentration was found to be 172 mg/mL and the Viscosity is recorded as 16. cP.

In data set [1], “412223 (antisense ACAGTTTCTGGCAGGCCTCG; 5-10-5 MOE gapmer, further chemistry not given here) [compound 412223]” registered a Concentration of 163 mg/mL and a Viscosity of 8 cP.

On to “412224 (antisense GCATTGGTGCACAGTTTCTG; 5-10-5 MOE gapmer, further chemistry not given here) [compound 412224]”, for which, in data set [1], the Concentration came out at 186 mg/mL and the Viscosity worked out at 98 cP.

The values above are taken from patent US20230263822A1, “MODULATION OF FACTOR 11 EXPRESSION” (Ionis Pharmaceuticals, Inc., priority 2008, published 2023).
